Assays:
MRSA and MRSE biofilm = test: Biofilm crystal violet assay, tedizolid phosphate/lysozyme; type: cell-based; details: tedizolid phosphate + 0.5 mg/ml lysozyme
Protocol: 4) Biofilm assays. According to previously described method [Thappeta, K. R. et al., ACS Infect. Dis. 6, 1228-1237(2020); Merritt, J. H. et al., Curr. Protoc. Microbiol. Chapter 1, Unit 1B.1 (2005); O'Toole, G. A. et al., J, Vis. Exp. 47, 2437 (2011)], biofilm was assessed by using an adherence assay on 96-well tissue culture plates. Briefly, tedizolid phosphate at final concentration of 0.3 μg/ml was added into bacterial suspensions (1×10^6 CFU/ml, in LB medium) in the absence or presence of 0.5 mg/ml lysozyme. LB medium with or without bacteria served as positive or negative control group, respectively. After overnight incubation at 37° C., the bacterial suspension was removed, and well was gently washed twice with sterile PBS to remove exclusively non-adherent bacteria. The adherent biofilm was fixed by using 95% methanol at 60° C. for 15 minutes. Then, biofilm was stained with 1% Crystal violet (100 μl/well) at 37° C. for 15 minutes, Ater that, all wells were gently washed with PBS to remove redundant crystal violet. Finally, the dye was solubilized with […] of 95% ethanol per well at 37° C. for 3 minutes. The optical density at 590 nm of solution in each well was measured using a micro-plate reader. Herein, strong biofilm, weak biofilm and no biofilm were defined as “[…]”, “ODnegative control<ODsample<2ODnegative control” and “ODsample≤ODnegative control”. […]

MRSA in ARPE-19 cells [1] = test: Cell infection model, tedizolid phosphate/lysozyme
MRSA [2] = test: Check board broth micro-dilution assay, tedizolid phosphate with lysozyme; type: cell-based, Staphylococcus aureus; details: for FICI: tedizolid phosphate + lysozyme
Protocol: 2) Check board broth micro-dilution assays. According to standard two-fold dilution method [Sun. H et al., Nat. Commun. 11, 5263 (2020) tedizolid phosphate at different concentrations were added into fresh LB medium (or trypticase soy troth medium with 5% defibrinated horse blood) containing different concentrations of human lysozyme in 96-well plate. Then, 20 μl of 1.0×10^7 CFU/ml logarithmic cultures of MRSA or MRSE were added into each well of the plate and co-incubated overnight. Drug-free LB medium in the absence or presence of bacteria served as background control and growth control group, respectively. […] Thus, there would be a series of FICI values. In most of cases, the lowest one among these values was listed to reflect the best achieving degree of combination therapy. In terms of the lowest FICI, FICI≤0.5, 0.5<FICI<1 or FICI≥1, would indicate the combination has synergy, part synergy or non-synergy effects, respectively.

MRSA and MRSE = test: Resistance development studies (serial passages), tedizolid phosphate/lysozyme; type: cell-based; details: after 12-day serial passages
Protocol: 5) Resistance development studies. […] H et al., Nat Commun. 11, 5263 (2020)], MRSA at exponential phase was diluted (1:1000) into fresh LB medium containing different concentrations of tedizolid phosphate, lysozyme alone or their combination. After cultured at 37° C. for 24 hours, the MIC of culture was determined by standard two-fold serial dilutions in 96-well microtiter plates. […] . All assays were performed in triplicate.

MRSA [3] = test: ATP, NADH and pyruvate levels, cefdinir/lysozyme; type: cell-based, Staphylococcus aureus; details: 1 hour
Protocol: 12) ATP, NADH and pyruvate levels. According to the described method [Liu Y et al., Adv Sci 7, 1902227 (2020)], mid-log-phase MRSA with an OD600 of 0.4 to 0.6 was treated with lysozyme, cefdinir or their combination at different concentrations. Those without any treatment served as control group. After 1 hour incubation at 37° C. bacteria with similar load (according to OD600, 1 ml bacteria were collected if the OD600 was 1) were collected, washed by cold PBS for 3 times. […] Here, 20 μl of each supernatant were added each well of white 96-well plate, in which each well had been pre-reactivated by 100 μl of ATP test solution (Beyotime. Co. Ltd, China), followed by luminometer measurement. To analyze the NAD^+/NADH ratio [Xue C et al., Front Pharmacol 12, 6000296 (2021)], half of lysis supernatants were frozen at −20° C. immediately and the rest half were firstly heated at 60° C. for 30 minutes in PCR machine to decompose NAD^+ if had, Next, these heated supernatants were further centrifuged at 18,000 g at 4° C. for 20 minutes to collect their supernatants. […] After 30 minutes incubation in the prevention of light, orange formazan was observed and then the absorbance at 450 nm was recorded. […] By recording the absorbance at 520 nm, the pyruvate level in each sample was figured out according to the standard formula. […]

MRSA in ARPE-19 cells [4] = test: Cell-based infection model, cefdinir/lysozyme; details: 0.25 μg/ml cefdinir combined with 0.5 mg/ml lysozyme

| SMILES | biofilm formation (absorbance at 590 nm), pre-biofilm stage (MRSA and MRSE biofilm) | death of infected ARPE-19 cells (MRSA in ARPE-19 cells [1]; 1.0 μg/ml tedizolid phosphate + 0.5 mg/ml lysozyme, MOI 10) | bacterial load in ARPE-19 cells (MRSA in ARPE-19 cells [1]; ≥1.0 μg/ml tedizolid phosphate in the presence of 0.5 mg/ml lysozyme, reduced from 10^7) | FICI (MRSA [2]; absence of urea-cycle inhibitors) | FICI (MRSA [2]; cultures of both inhibitors) | FICI (MRSA [2]; presence of BB-Cl-Amidine or acetohydroxamic acid) | fractional inhibitory concentration index (FICI) (MRSA [2]; tedizolid phosphate and lysozyme) | changes in the MIC level of tedizolid phosphate (MRSA and MRSE; combination therapy with lysozyme) | changes in the MIC level of tedizolid phosphate (MRSA and MRSE; tedizolid phosphate alone) [fold] | increasing ATP level (MRSA [3]; cefdinir (0.5 μg/ml) + lysozyme (0.5 mg/ml)) [fold] | increase in the ratio of NAD+/NADH (MRSA [3]; cefdinir treatment) [fold] | drop of bacterial load in infected ARPE-19 cells (MRSA in ARPE-19 cells [4]) | bacterial load in infected ARPE-19 cells (MRSA in ARPE-19 cells [4]; MOI 50) |
| --- | --- | --- | --- | --- | --- | --- | --- | --- | --- | --- | --- | --- | --- |
| Cn1nnc(-c2ccc(-c3ccc(N4C[C@H](COP(=O)(O)O)OC4=O)cc3F)cn2)n1 [tedizolid phosphate, Tedizolid Phosphate] | biofilm was eliminated | cell death was prevented | 10^4 CFU/ml | 0.015 | up to 0.25 | 0.1 | < 0.023 | remained unchanged | 30 | – | – | – | – |
| C=CC1=C(C(=O)O)N2C(=O)[C@@H](NC(=O)/C(=N\O)c3csc(N)n3)[C@H]2SC1 [cefdinir, Cefdinir] | – | – | – | – | – | – | – | – | – | 1.5 | 1.3 | 10^2 fold | 10^3 CFU/ml |

Source: US20250144187A1, “COMBINATION OF HYDROLASES AND ANTI-MICROORGANISM DRUGS AND USES THEREOF” (CENTRE FOR EYE AND VISION RESEARCH LIMITED, priority 2023, published 2025)
